Measurements reported in patent US10266549B2, “ULK1 inhibitors and methods using same” (SALK INSTITUTE FOR BIOLOGICAL STUDIES, priority 2014, dated 2019).

Each molecule was assayed on PC3 human prostate cells stably expressing GFP-LC3 (assay: GFP-LC3 puncta quantification in PC3 cells). Settings: PC3 GFP-LC3, control siRNAs, 1 μM mTOR inhibitor for 4 hr.
Type: cell-based
Experimental: At 48 hr after RNAi transfection, the cells were treated with 1 μM of the catalytic mTOR inhibitors AZD8055 or INK128 for 4 hr and assessed for the presence of GFP-LC3 puncta. The average number of GFPLC3 puncta and SD for each siRNA and drug treatment are shown. SRC, c-Src; c-Src kinase, CSK.
To test the ability of compound 14 to block autophagy and cell survival, initial studies were performed in A549 lung cancer cells, which are highly sensitive to mTOR inhibition. […] Next, we genetically assessed the requirement for ULK1 versus other kinases inhibited by compound 14 to induce autophagy after pharmacological mTOR inhibition. A robust high-throughput microscopy method for quantifying GFP-LC3 puncta was established using a PC3 prostate-cancer cell line stably expressing a GFP-LC3 construct. Using this assay, we performed a focused RNAi analysis of the top 20 kinases identified in the DiscovRx screen as best binding to compound 14. […] Strikingly, of the 18 kinases tested, only one kinase siRNA, ULK1, nearly fully abolished the LC3 puncta induced by the mTOR inhibitors (FIG. 9D).

SMILES	induction in GFP-LC3 puncta formation [fold]
CC(C)n1nc(-c2ccc3oc(N)nc3c2)c2c(N)ncnc21 [INK128, 3-(2-amino-5-benzoxazolyl)-1-(1-methylethyl)-1H-pyrazolo[3,4-d]pyrimidin-4-amine]	2
COc1ccc(-c2ccc3c(N4CCOC[C@@H]4C)nc(N4CCOC[C@@H]4C)nc3n2)cc1CO [AZD8055, (5-(2,4-bis((S)-3-methylmorpholino)pyrido[2,3-d]pyrimidin-7-yl)-2-methoxyphenyl)methanol, reference compound]	2

What follows are molecules tested on A549 lung cancer cells (assay: AnnexinV apoptosis analysis in A549 cells with mTOR inhibitor). Settings: AZD8055 alone, 1 micromolar.
Type: cell-based
Experimental: A549 cells (ATCC #CCL185) and MEFs were seeded at a concentration of 2.5×10^5 cells/mL (i.e., 750,000 cells per 6 cm dish), grown overnight (18 hrs) and treated as indicted in the figure legends. Unless otherwise indicated, “starvation” is EBSS and “control” is DMEM with full serum for indicated timepoints. Samples for western blot were washed once in 1× ice cold PBS and lysed in boiling SDS lysis buffer (10 mM Tris […], 100 mM NaCl, 1% SDS). After trituration, lysates were equilibrated for protein levels using the BCA method (Pierce) and resolved on 8 to 15% SDS-PAGE gels, depending on the size of the protein. PVDF membranes were probed with indicated antibodies overnight according to the manufacturers instructions.
For flow cytometry analysis, cells were collected at the appropriate time point, washed once in PBS, trypsinized and pelleted. For Annexin V staining, cells were washed in 1× Annexin V buffer and treated as described by the Annexin V staining protocol (BD Pharmingen, San Diego, Calif.). Briefly, cells were resuspended in Annexin V buffer to a concentration of one million per mL, 100,000 cells were then stained with 5 μL of phycoerythrin (PE)-conjugated Annexin V antibody (BD Pharmingen, San Diego, Calif.) and 5 μL of 7-amino-actinomycin D (7AAD) and then incubated at room temperature for 15 minutes. 400 μL of Annexin V buffer was then added to each sample with gentle mixing. Stained cells were analyzed using a FACScan flow cytometer (Becton Dickinson, San Jose, Calif.). Flow cytometry data was analyzed using FlowJo 8.6 software (Tree Star Inc., Ashland, Oreg.).
There has been great interest in the role of autophagy in the survival of tumor cells, particular tumor cells faced with metabolic stress from chemotherapies or targeted therapeutics. We next examined whether compound 14 would promote apoptosis in tumor cells similar to the MEFs, selectively under conditions in which autophagy is actively engaged. […] Given that mTOR activity is a dominant regulator of ULK1 activity, and we previously noted that treatment of cells with mTOR catalytic inhibitors was sufficient to induce ULK1 activity, we examined the effect of adding in the ULK1 inhibitor in the context of treatment with mTOR catalytic inhibitors. Using a cell line well-established to be sensitive to mTORC1 inhibition, A549 lung cancer cells, we treated with escalating doses of ULK1 inhibitor while keeping a constant cytostatic growth arrest-inducing 1 micromolar dose of the mTOR catalytic inhibitor AZD8055. We observed that 5 μM compound 14 in combination with AZD8055 triggered apoptosis in 22% of A549 cells compared to 9% of the 5 μM compound 14 alone or 6% of those cells treated with AZD8055 alone. […]

SMILES	apoptosis, % of A549 cells [%]
COc1ccc(-c2ccc3c(N4CCOC[C@@H]4C)nc(N4CCOC[C@@H]4C)nc3n2)cc1CO [AZD8055, (5-(2,4-bis((S)-3-methylmorpholino)pyrido[2,3-d]pyrimidin-7-yl)-2-methoxyphenyl)methanol, reference compound]	6

Each molecule was assayed against ULK1 (Homo sapiens (Human), UniProt O75385) (assay: ULK1 inhibition assay (Table 1)). Settings: * = tested as a mixture of regioisomers.
Type: biochemical

Chain of ULK1 (O75385 whole entry, species assumed): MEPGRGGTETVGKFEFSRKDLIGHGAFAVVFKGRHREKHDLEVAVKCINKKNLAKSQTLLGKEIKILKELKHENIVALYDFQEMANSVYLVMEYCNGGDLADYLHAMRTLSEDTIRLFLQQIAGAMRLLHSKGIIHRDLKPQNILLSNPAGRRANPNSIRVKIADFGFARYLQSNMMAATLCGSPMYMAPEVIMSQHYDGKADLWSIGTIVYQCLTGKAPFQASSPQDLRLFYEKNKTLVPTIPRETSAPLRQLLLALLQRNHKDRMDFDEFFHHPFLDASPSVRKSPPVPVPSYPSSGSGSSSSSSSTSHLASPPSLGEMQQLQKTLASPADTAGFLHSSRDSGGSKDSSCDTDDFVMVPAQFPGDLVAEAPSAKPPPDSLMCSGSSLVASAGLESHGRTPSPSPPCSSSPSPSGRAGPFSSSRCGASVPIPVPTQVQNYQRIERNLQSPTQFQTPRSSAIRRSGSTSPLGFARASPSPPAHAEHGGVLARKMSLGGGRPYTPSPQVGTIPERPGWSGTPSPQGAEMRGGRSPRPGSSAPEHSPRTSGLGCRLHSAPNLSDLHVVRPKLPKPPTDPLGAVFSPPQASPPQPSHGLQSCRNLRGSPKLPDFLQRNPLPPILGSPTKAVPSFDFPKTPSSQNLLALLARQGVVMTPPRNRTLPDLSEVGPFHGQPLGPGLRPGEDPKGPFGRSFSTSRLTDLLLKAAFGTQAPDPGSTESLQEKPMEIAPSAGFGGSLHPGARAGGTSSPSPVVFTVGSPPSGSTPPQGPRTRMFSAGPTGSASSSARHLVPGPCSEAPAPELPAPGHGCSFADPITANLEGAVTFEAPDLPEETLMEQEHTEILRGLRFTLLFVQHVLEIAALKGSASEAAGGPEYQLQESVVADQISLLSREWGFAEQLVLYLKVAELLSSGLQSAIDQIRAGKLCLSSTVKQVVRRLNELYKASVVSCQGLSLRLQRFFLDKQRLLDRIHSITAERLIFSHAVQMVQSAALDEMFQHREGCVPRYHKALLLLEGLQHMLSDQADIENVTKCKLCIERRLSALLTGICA

SMILES	IC50 [nM]
Brc1cnc(Nc2ccc3[nH]ccc3c2)nc1Nc1ccccn1 [compound 154, 5-bromo-N^2-(1H-indol-5-yl)-N^4-(pyridin-2-yl)pyrimidine-2,4-diamine]	< 200
CNC(=O)c1cccc(Nc2nc(Nc3ccc4c(c3)CCC(=O)N4)ncc2C(F)(F)F)c1 [compound 128, N-methyl-3-((2-((2-oxo-1,2,3,4-tetrahydroquinolin-6-yl)amino)-5-(trifluoromethyl)pyrimidin-4-yl)amino)benzamide]	< 200
FC(F)(F)c1cnc(Nc2cnc3[nH]ccc3c2)nc1Nc1ccccc1 [181a, N4-phenyl-N2-(1H-pyrrolo[2,3-b]pyridin-5-yl)-5-(trifluoromethyl)pyrimidine-2,4-diamine]	< 200
FC(F)(F)c1cnc(NC2CCC2)nc1NC1CCC1 [168c, N^2,N^4-dicyclobutyl-5-(trifluoromethyl) pyrimidine-2,4-diamine]	200 to 2000
CNC(=O)c1ccccc1Nc1nc(Nc2cc(N3CCOCC3)cc(N3CCOCC3)c2)ncc1C(F)(F)F [compound 90, 2-(2-(3,5-dimorpholinophenylamino)-5-(trifluoromethyl)pyrimidin-4-ylamino)-N-methylbenzamide]	< 200
O=C1CCc2cc(Nc3ncc(C(F)(F)F)c(Nc4ccc5c(c4)CCC(=O)N5)n3)ccc2N1 [120c, 6,6′-((5-(trifluoromethyl)pyrimidine-2,4-diyl)bis(azanediyl))bis(3,4-dihydroquinolin-2(1H)-one)]	< 200
COc1ccc(OC)c(Nc2ncc(C(F)(F)F)c(O)n2)c1 [109b, 2-((2,5-dimethoxyphenyl)amino)-5-(trifluoromethyl)pyrimidin-4-ol]	> 2000
COc1ccc(C)c(Nc2ncc(Cl)c(NCc3cccc(S(C)(=O)=O)c3)n2)c1 [compound 41, 5-Chloro-N^2-(5-methoxy-2-methylphenyl)-N^4-(3-(methylsulfonyl)benzyl)pyrimidine-2,4-diamine]	> 2000
CS(=O)(=O)c1cccc(CNc2nc(Nc3ccc4[nH]ccc4c3)ncc2Br)c1 [compound 153, 5-bromo-N^2-(1H-indol-5-yl)-N^4-(3-(methylsulfonyl)benzyl) pyrimidine-2,4-diamine]	> 2000
CNC(=O)c1ccccc1Oc1nc(Nc2ccc3c(c2)CCC(=O)N3)ncc1C(F)(F)F [compound 110, N-methyl-2-((2-((2-oxo-1,2,3,4-tetrahydroquinolin-6-yl)amino)-5-(trifluoromethyl)pyrimidin-4-yl)oxy)benzamide]	200 to 2000
FC(F)(F)c1cnc(Nc2ccc3c(c2)OCO3)nc1N1CCCC1 [164b, N-(benzo[d][1,3]dioxol-5-yl)-4-(pyrrolidin-1-yl)-5-(trifluoromethyl)pyrimidin-2-amine]	200 to 2000
CNC(=O)c1ccccc1Oc1nc(Nc2cc(Br)ccc2C)ncc1C(F)(F)F [compound 100, 2((2-((5-bromo-2-methylphenyl)amino)-5-(trifluoromethyl)pyrimidin-4-yl)oxy)-N-methylbenzamide]	> 2000
